From patent US10206907B2, “Compounds useful for the treatment of degenerative and inflammatory diseases” (GALAPAGOS NV, priority 2008, dated 2019)

Tests used:
[1] = biological target: Recombinant human JAK1 catalytic domain (Homo sapiens (Human), UniProt P23458); assay: JAK1 inhibition assay; format: biochemical; conditions: semi-quantitative score
How it was run: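 Radiometric assay read by scintillation counting after phosphoric-acid washes. Percent inhibition calculated from cpm relative to vehicle and 10 μM staurosporine control. IC50 derived from compound dose-dilution series.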

[2] = biological target: Recombinant human JAK2 catalytic domain (Homo sapiens (Human), UniProt O60674); assay: JAK2 inhibition assay; format: biochemical; conditions: semi-quantitative score
How it was run: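 Radiometric kinase reactions ran for 90 min at 30 °C and were stopped with phosphoric acid, then washed and counted by scintillation. Percent inhibition was set relative to vehicle and to 10 μM staurosporine background. IC50 was derived from dose-dilution series.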

[3] = system: JAK-STAT signalling in HeLa cells; assay: JAK-STAT signalling assay (OSM-triggered pSTAT1(2)-luciferase reporter in HeLa cells); format: cell-based; conditions: Homo sapiens; HeLa cells, OSM-triggered pSTAT1(2)-luciferase reporter; read-out: STAT signalling EC50
Experimental: HeLa cells were maintained in Dulbecco's Modified Eagle's Medium (DMEM) containing 10% heat inactivated fetal calf serum, 100 U/mL penicillin and 100 μg/mL streptomycin. HeLa cells were used at 70% confluence for transfection. 20,000 cells in 87 μL cell culture medium were transiently transfected with 40 ng pSTAT1(2)-luciferase reporter (Panomics), 8 ng of LacZ reporter as internal control reporter and 52 ng of pBSK using 0.32 μL Jet-PEI (Polyplus) as transfection reagent per well in 96-well plate format. After overnight incubation at 37° C., 10% CO2, transfection medium was removed.
40 μL of cell lysate was used to read β-galactosidase activity by adding 180 μL βGal solution (30 μl ONPG 4 mg/mL+150 μL β-Galactosidase buffer (0.06 M Na2HPO4, 0.04 M NaH2PO4, 1 mM MgCl2)) for 20 min.
Luciferase activity was measured using 40 μL cell lysate plus 40 μl of Steadylite® as described by the manufacturer (Perkin Elmer), on the Envision (Perkin Elmer).
The positive and negative controls were used to calculate z’ and ‘percent inhibition’ (PIN) values.
PIN values were plotted for compounds tested in dose-response and EC50 values were derived.

Sequence of Recombinant human JAK2 catalytic domain (O60674 808-1132): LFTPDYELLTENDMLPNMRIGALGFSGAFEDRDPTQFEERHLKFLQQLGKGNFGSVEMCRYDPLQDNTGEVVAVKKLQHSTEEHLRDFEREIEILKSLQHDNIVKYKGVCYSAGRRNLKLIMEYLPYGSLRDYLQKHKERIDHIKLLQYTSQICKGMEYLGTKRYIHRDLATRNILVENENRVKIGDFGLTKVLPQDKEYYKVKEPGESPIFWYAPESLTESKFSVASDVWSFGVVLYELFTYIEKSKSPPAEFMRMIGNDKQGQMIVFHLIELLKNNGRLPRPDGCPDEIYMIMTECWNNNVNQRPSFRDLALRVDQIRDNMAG
Sequence of Recombinant human JAK1 catalytic domain (P23458 850-1154): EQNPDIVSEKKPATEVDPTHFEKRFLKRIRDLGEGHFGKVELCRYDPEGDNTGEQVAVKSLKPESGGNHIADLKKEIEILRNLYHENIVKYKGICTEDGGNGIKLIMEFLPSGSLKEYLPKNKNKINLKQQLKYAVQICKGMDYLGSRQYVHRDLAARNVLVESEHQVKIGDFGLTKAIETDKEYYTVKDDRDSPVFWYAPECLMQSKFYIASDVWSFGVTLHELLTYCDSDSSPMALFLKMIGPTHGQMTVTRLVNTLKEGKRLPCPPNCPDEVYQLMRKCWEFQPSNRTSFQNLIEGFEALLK

Compound | IC50 [1] [nM] | IC50 [2] [nM] | EC50 [3] [nM]
CN(C)CC1CN(C(=O)c2ccc(-c3cccc4nc(NC(=O)C5CC5)nn34)cc2)C1 [Compound 329, Cyclopropanecarboxylic acid {5-[4-(3-dimethylaminomethyl-azetidine-1-carbonyl)-phenyl]-[1,2,4]triazolo[1,5-a]pyridin-2-yl}-amide] | 101 to 500 | > 1000 | > 1000
CN(C)C1CN(C(=O)c2ccc(-c3cccc4nc(NC(=O)C5CC5)nn34)cc2)C1 [Compound 327, Cyclopropanecarboxylic acid {5-[4-(3-dimethylamino-azetidine-1-carbonyl)-phenyl]-[1,2,4]triazolo[1,5-a]pyridin-2-yl}-amide] | 101 to 500 | > 1000 | > 1000
O=C(Nc1nc2cccc(-c3cccc(OCc4ccccc4)c3)n2n1)C1CC1 [Compound 14, N-(5-(3-(benzyloxy)phenyl)-[1,2,4]triazolo[1,5-a]pyridin-2-yl)cyclopropanecarboxamide] | 101 to 500 | 501 to 1000 | > 1000
O=C(Nc1nc2cccc(-c3ccc(-c4cccs4)cc3)n2n1)C1CC1 [Compound 20, N-(5-(4-(thiophen-2-yl)phenyl)-[1,2,4]triazolo[1,5-a]pyridin-2-yl)cyclopropanecarboxamide] | 101 to 500 | 501 to 1000 | 501 to 1000
O=C(Nc1nc2cccc(-c3ccc(C(=O)N4CC(N5CCOCC5)C4)cc3)n2n1)C1CC1 [Compound 326, Cyclopropanecarboxylic acid {5-[4-(3-morpholin-4-yl-azetidine-1-carbonyl)-phenyl]-[1,2,4]triazolo[1,5-a]pyridin-2-yl}-amide] | 101 to 500 | > 1000 | > 1000
N#CC1CN(Cc2ccc(-c3cccc4nc(NC(=O)C5CC5)nn34)cc2)C1 [Compound 303, Cyclopropanecarboxylic acid {5-[4-(3-cyano-azetidin-1-ylmethyl)-phenyl]-[1,2,4]triazolo[1,5-a]pyridin-2-yl}-amide] | < 100 | 101 to 500 | 501 to 1000
O=C1CN(C(=O)c2ccc(-c3cccc4nc(NC(=O)C5CC5)nn34)cc2)CCN1 [Compound 277, Cyclopropanecarboxylic acid [5-[4-(3-oxo-piperazine-1-carbonyl)-phenyl]-[1,2,4]triazolo[1,5-a]pyridin-2-yl}-amide] | < 100 | 101 to 500 | > 1000

Other lines, results leading:

IC50 [1] [nM] | IC50 [2] [nM] | EC50 [3] [nM] | Compound
< 100 | > 1000 | > 1000 | COC1CCN(C(=O)c2ccc(-c3cccc4nc(NC(=O)C5CC5)nn34)cc2)CC1 [Compound 293, Cyclopropanecarboxylic acid {5-[4-(4-methoxy-piperidine-1-carbonyl)-phenyl]-[1,2,4]triazolo[1,5-a]pyridin-2-yl}-amide]
< 100 | 101 to 500 | > 1000 | N#Cc1ccc(-c2ccc(-c3cccc4nc(NC(=O)C5CC5)nn34)cc2)cn1 [Compound 239, Cyclopropanecarboxylic Acid {5-[4-(6-cyano-pyridin-3-yl)-phenyl]-[1,2,4]triazolo[1,5-a]pyridin-2-yl}-amide]
< 100 | 101 to 500 | > 1000 | CN1CCN(c2ccc(NCc3ccc(-c4cccc5nc(NC(=O)C6CC6)nn45)cc3)cn2)CC1 [Compound 235, Cyclopropanecarboxylic acid [5-(4-{[6-(4-methyl-piperazin-1-yl)-pyridin-3-ylamino]-methyl}-phenyl)-[1,2,4]triazolo[1,5-a]pyridin-2-yl]-amide]
< 100 | > 1000 | > 1000 | CC(C)(C)OC(=O)NC1CCN(Cc2ccc(-c3cccc4nc(NC(=O)C5CC5)nn34)cc2)CC1 [Compound 310]
< 100 | 101 to 500 | > 1000 | N#Cc1ccc(OC2CN(Cc3ccc(-c4cccc5nc(NC(=O)C6CC6)nn45)cc3)C2)cc1 [Compound 278, Cyclopropanecarboxylic acid (5-{4-[3-(4-cyano-phenoxy)-azetidin-1-ylmethyl]-phenyl}-[1,2,4]triazolo[1,5-a]pyridin-2-yl)-amide]
